From patent publication US11180504B2 (ORCHID PHARMA LTD., priority 2016, dated 2021)
Converted amounts (≈) assume the structure as drawn. Where two headings read alike, the source gives them in different places.

Columns and labels:
[1] = test system: methicillin-sensitive Staphylococcus aureus; test: MIC by broth micro-dilution (CLSI), methicillin-sensitive S. aureus; format: cell-based; details: MSSA S. aureus ATCC29213
[2] = test system: carbapenem sensitive Escherichia coli; test: MIC by broth micro-dilution (CLSI), carbapenem sensitive E. coli; format: cell-based
[3] = test system: extended spectrum β lactamase (ESBL) SHV18 producing Klebsiella pneumoniae; test: MIC by broth micro-dilution (CLSI), ESBL SHV18 producing K. pneumoniae; format: cell-based; details: ESBL +ve (SHV-18) K. pneumoniae ATCC700603
[4] = test system: carbapenemase producing K. pneumoniae; test: MIC by broth micro-dilution (CLSI), carbapenemase producing K. pneumoniae; format: cell-based, Klebsiella pneumoniae
[5] = test system: carbapenem sensitive Pseudomonas aeruginosa; test: MIC by broth micro-dilution (CLSI), carbapenem sensitive P. aeruginosa; format: cell-based
[6] = Staphylococcus aureus, ATCC 29213 / MSSA, read-out: MIC
[7] = Escherichia coli, ATCC25922, ESBL −ve E. coli ATCC25922, read-out: MIC
[8] = Klebsiella pneumoniae, ATCC700603, 22 h, read-out: MIC
[9] = Klebsiella pneumoniae, ATCCBAA1705, KPC-2 K. pneumoniae ATCC BAA-1705, read-out: MIC
[10] = Pseudomonas aeruginosa, ATCC27853, Meropenem susceptible P. aeruginosa ATCC27853, read-out: MIC

Compound	MIC [1, 6] [µg/mL]	MIC [2, 7] [µg/mL]	MIC [3, 8] [µg/mL]	MIC [4, 9] [µg/mL]	MIC [5, 10] [µg/mL]	MIC [1] [µg/mL]	MIC ([2]; ESBL −ve E. coli ATCC25922) [µg/mL]	MIC [3] [µg/mL]	MIC ([4]; KPC-2 K. pneumoniae ATCC BAA-1705) [µg/mL]	MIC ([5]; Meropenem susceptible P. aeruginosa ATCC27853) [µg/mL]
C[C@@H](NC(=O)CN(C)C)[C@H]1C(=O)N2C(C(=O)O)=C(S[C@@H]3CN[C@H](C(=O)N4CCNCC4)C3)[C@H](C)[C@H]12 [Example 182]	128 (≈ 252 µM)	8 (≈ 15.7 µM)	16 (≈ 31.5 µM)	16 (≈ 31.5 µM)	8 (≈ 15.7 µM)					
C[C@@H](NC(=O)C(F)F)[C@H]1C(=O)N2C(C(=O)O)=C(S[C@@H]3CN[C@H](C(=O)N4C[C@@H](N)C[C@H]4CN)C3)[C@H](C)[C@H]12 [Example 183]	8 (≈ 15.1 µM)	2 (≈ 3.77 µM)	32 (≈ 60.3 µM)	16 (≈ 30.2 µM)	64 (≈ 121 µM)					
C[C@@H](NC(=O)C(F)F)[C@H]1C(=O)N2C(C(=O)O)=C(S[C@@H]3CN[C@H](C(=O)N4CC[C@H](NC=N)C4)C3)[C@H](C)[C@H]12 [Example 184]	2 (≈ 3.78 µM)	0.5 (≈ 0.946 µM)	4 (≈ 7.57 µM)	8 (≈ 15.1 µM)	4 (≈ 7.57 µM)					
CNC[C@@H]1C[C@H](N)CN1C(=O)[C@@H]1C[C@H](SC2=C(C(=O)O)N3C(=O)[C@H]([C@@H](C)NC(=O)C(F)F)[C@H]3[C@H]2C)CN1 [Example 185]	2 (≈ 3.67 µM)	2 (≈ 3.67 µM)	64 (≈ 118 µM)	16 (≈ 29.4 µM)	64 (≈ 118 µM)					
C[C@@H](NC(=O)C(F)F)[C@H]1C(=O)N2C(C(=O)O)=C(S[C@@H]3CN[C@H](C(=O)N4C[C@@H](N)C[C@H]4CO)C3)[C@H](C)[C@H]12 [Example 186]	4 (≈ 7.52 µM)	0.5 (≈ 0.941 µM)	4 (≈ 7.52 µM)	4 (≈ 7.52 µM)	8 (≈ 15 µM)					
C[C@@H](Oc1ccon1)[C@H]1C(=O)N2C(C(=O)O)=C(S[C@@H]3CN[C@H](C(=O)N(C)C)C3)[C@H](C)[C@H]12 [Example 187]	4 (≈ 8.88 µM)	2 (≈ 4.44 µM)	8 (≈ 17.8 µM)	64 (≈ 142 µM)	128 (≈ 284 µM)					
CNCC(=O)N[C@H](C)[C@H]1C(=O)N2C(C(=O)O)=C(S[C@@H]3CN[C@H](C(=O)N4CC(N)C4)C3)[C@H](C)[C@H]12 [Example 189]	> 128	4 (≈ 8.32 µM)	32 (≈ 66.6 µM)	8 (≈ 16.6 µM)	16 (≈ 33.3 µM)					
CNCC(=O)N[C@H](C)[C@H]1C(=O)N2C(C(=O)O)=C(S[C@@H]3CN[C@H](C(=O)N4CCC(N)CC4)C3)[C@H](C)[C@H]12 [Example 190]	64 (≈ 126 µM)	2 (≈ 3.93 µM)	16 (≈ 31.5 µM)	4 (≈ 7.86 µM)	4 (≈ 7.86 µM)					
CNCC(=O)N[C@H](C)[C@H]1C(=O)N2C(C(=O)O)=C(S[C@@H]3CN[C@H](C(=O)N4C[C@@H](N)C[C@H]4CN)C3)[C@H](C)[C@H]12 [Example 191]	64 (≈ 122 µM)	8 (≈ 15.3 µM)	32 (≈ 61.1 µM)	8 (≈ 15.3 µM)	32 (≈ 61.1 µM)					
CNCC(=O)N[C@H](C)[C@H]1C(=O)N2C(C(=O)O)=C(S[C@@H]3CN[C@H](C(=O)N4CC[C@@H](O)C4)C3)[C@H](C)[C@H]12 [Example 192]	64 (≈ 129 µM)	1 (≈ 2.02 µM)	2 (≈ 4.04 µM)	2 (≈ 4.04 µM)	4 (≈ 8.07 µM)					
CNCC(=O)N[C@H](C)[C@H]1C(=O)N2C(C(=O)O)=C(S[C@@H]3CN[C@H](C(=O)N4CCC(NC(=O)CN)CC4)C3)[C@H](C)[C@H]12 [Example 193]	64 (≈ 113 µM)	4 (≈ 7.07 µM)	8 (≈ 14.1 µM)	4 (≈ 7.07 µM)	8 (≈ 14.1 µM)					
C[C@@H](NC(=O)C(F)F)[C@H]1C(=O)N2C(C(=O)O)=C(S[C@@H]3CN[C@H](C(=O)N4C[C@H](N)[C@@H](N)C4)C3)[C@H](C)[C@H]12 [Example 194]	8 (≈ 15.5 µM)	2 (≈ 3.87 µM)	8 (≈ 15.5 µM)	16 (≈ 31 µM)	16 (≈ 31 µM)					
C[C@@H](NC(=O)C(F)F)[C@H]1C(=O)N2C(C(=O)O)=C(S[C@@H]3CN[C@H](C(=O)N4CC[C@H](NC(=N)N)C4)C3)[C@H](C)[C@H]12 [Example 195]	2 (≈ 3.68 µM)	0.5 (≈ 0.92 µM)	1 (≈ 1.84 µM)	4 (≈ 7.36 µM)	8 (≈ 14.7 µM)					
C[C@@H](NC(=O)C(F)F)[C@H]1C(=O)N2C(C(=O)O)=C(S[C@@H]3CN[C@H](C(=O)N4CC[C@H](NC(=O)CNC(=N)N)C4)C3)[C@H](C)[C@H]12 [Example 196]	2 (≈ 3.33 µM)	1 (≈ 1.66 µM)	4 (≈ 6.66 µM)	8 (≈ 13.3 µM)	32 (≈ 53.3 µM)					
C[C@@H](NC(=O)CNC1CC1)[C@H]1C(=O)N2C(C(=O)O)=C(S[C@@H]3CN[C@H](C(=O)N4CC[C@@H](N)C4)C3)[C@H](C)[C@H]12 [Example 197]	16 (≈ 30.7 µM)	4 (≈ 7.68 µM)	16 (≈ 30.7 µM)	16 (≈ 30.7 µM)	32 (≈ 61.5 µM)					
C[C@@H](NC(=O)C(F)F)[C@H]1C(=O)N2C(C(=O)O)=C(S[C@@H]3CN[C@H](C(=O)N4C[C@H](O)[C@@H](O)C4)C3)[C@H](C)[C@H]12 [Example 198]	2 (≈ 3.86 µM)	0.25 (≈ 0.482 µM)	1 (≈ 1.93 µM)	4 (≈ 7.71 µM)	32 (≈ 61.7 µM)					
CNCC(=O)N[C@H](C)[C@H]1C(=O)N2C(C(=O)O)=C(S[C@@H]3CN[C@H](C(=O)N4CC[C@H](NC=N)C4)C3)[C@H](C)[C@H]12 [Example 199]	32 (≈ 61.3 µM)	1 (≈ 1.92 µM)	4 (≈ 7.67 µM)	2 (≈ 3.83 µM)	4 (≈ 7.67 µM)					
CNCC(=O)N[C@H](C)[C@H]1C(=O)N2C(C(=O)O)=C(S[C@@H]3CN[C@H](C(=O)N4C[C@H](N)[C@@H](N)C4)C3)[C@H](C)[C@H]12 [Example 200]	128 (≈ 251 µM)	2 (≈ 3.92 µM)	8 (≈ 15.7 µM)	4 (≈ 7.85 µM)	4 (≈ 7.85 µM)					
C[C@@H](NS(C)(=O)=O)[C@H]1C(=O)N2C(C(=O)O)=C(S[C@@H]3CN[C@H](C(=O)N(CCN)CCO)C3)[C@H](C)[C@H]12 [Example 201]	16 (≈ 30.8 µM)	2 (≈ 3.85 µM)	16 (≈ 30.8 µM)	64 (≈ 123 µM)	16 (≈ 30.8 µM)					
CNCC(=O)N[C@H](C)[C@H]1C(=O)N2C(C(=O)O)=C(S[C@@H]3CN[C@H](C(=O)N(CCN)CCO)C3)[C@H](C)[C@H]12 [Example 202]	64 (≈ 125 µM)	4 (≈ 7.8 µM)	64 (≈ 125 µM)	16 (≈ 31.2 µM)	8 (≈ 15.6 µM)					
C[C@@H](NS(C)(=O)=O)[C@H]1C(=O)N2C(C(=O)O)=C(S[C@@H]3CN[C@H](C(=O)N4CC[C@@H](NS(N)(=O)=O)C4)C3)[C@H](C)[C@H]12 [Example 203]	16 (≈ 27.6 µM)	0.5 (≈ 0.861 µM)	1 (≈ 1.72 µM)	4 (≈ 6.89 µM)	128 (≈ 220 µM)					
C[C@@H](NS(=O)(=O)C(F)(F)F)[C@H]1C(=O)N2C(C(=O)O)=C(S[C@@H]3CN[C@H](C(=O)N4CC[C@@H](N)C4)C3)[C@H](C)[C@H]12 [Example 204]	32 (≈ 57.6 µM)	8 (≈ 14.4 µM)	> 128	> 128	> 128					
C[C@@H](NC(=O)[C@@H]1CCCN1)[C@H]1C(=O)N2C(C(=O)O)=C(S[C@@H]3CN[C@H](C(=O)N4CC[C@@H](N)C4)C3)[C@H](C)[C@H]12 [Example 205]	32 (≈ 61.5 µM)	1 (≈ 1.92 µM)	2 (≈ 3.84 µM)	4 (≈ 7.68 µM)	8 (≈ 15.4 µM)					
C[C@@H](NC(=O)[C@H]1CCCN1)[C@H]1C(=O)N2C(C(=O)O)=C(S[C@@H]3CN[C@H](C(=O)N4CC[C@@H](N)C4)C3)[C@H](C)[C@H]12 [Example 206]	64 (≈ 123 µM)	4 (≈ 7.68 µM)	4 (≈ 7.68 µM)	4 (≈ 7.68 µM)	4 (≈ 7.68 µM)					
C[C@H]([C@H]1C(=O)N2C(C(=O)O)=C(SC3CN[C@H](C(=O)N4CCNCC4)C3)[C@H](C)[C@H]12)n1cc(CF)nn1 (stereo partly drawn) [Example 207]	2 (≈ 3.94 µM)	2 (≈ 3.94 µM)	8 (≈ 15.8 µM)	8 (≈ 15.8 µM)	> 128					
CNCc1cn([C@H](C)[C@H]2C(=O)N3C(C(=O)O)=C(SC4CN[C@H](C(=O)N(C)C)C4)[C@H](C)[C@H]23)nn1 (stereo partly drawn) [Example 208]	64 (≈ 134 µM)	4 (≈ 8.38 µM)	8 (≈ 16.8 µM)	8 (≈ 16.8 µM)	> 128					
C[C@@H](NC(=O)C(F)F)[C@H]1C(=O)N2C(C(=O)O)=C(S[C@@H]3CN[C@H](C(=O)N4CC[C@@H](F)C4)C3)[C@H](C)[C@H]12 [Example 209]	2 (≈ 3.96 µM)	0.5 (≈ 0.991 µM)	2 (≈ 3.96 µM)	2 (≈ 3.96 µM)	64 (≈ 127 µM)					
C[C@@H](NC(=O)C(F)F)[C@H]1C(=O)N2C(C(=O)O)=C(S[C@@H]3CN[C@H](C(=O)N4CC[C@@H](F)C4)C3)[C@H](C)[C@H]12 [Example 210]						2 (≈ 3.96 µM)	1 (≈ 1.98 µM)	4 (≈ 7.93 µM)	4 (≈ 7.93 µM)	64 (≈ 127 µM)
C[C@@H](NC(=O)C(F)F)[C@H]1C(=O)N2C(C(=O)O)=C(S[C@@H]3CN[C@H](C(=O)N4C[C@H](N)[C@@H](F)C4)C3)[C@H](C)[C@H]12 [Example 211]	2 (≈ 3.85 µM)	1 (≈ 1.92 µM)	4 (≈ 7.7 µM)	4 (≈ 7.7 µM)	16 (≈ 30.8 µM)					
C[C@@H](NC(=O)C(F)F)[C@H]1C(=O)N2C(C(=O)O)=C(S[C@@H]3CN[C@H](C(=O)N4C[C@@H](N)C[C@H]4CNS(N)(=O)=O)C3)[C@H](C)[C@H]12 [Example 212]	1 (≈ 1.64 µM)	0.5 (≈ 0.82 µM)	2 (≈ 3.28 µM)	4 (≈ 6.56 µM)	8 (≈ 13.1 µM)					
